In paper PMC7140498, “Predicting liver cytosol stability of small molecules” (Journal of Cheminformatics, 2020):

Assay: Metabolic stability assay (substrate depletion) in human liver cytosol fractions
Settings: both, human, cytosol, pH 7.4, t1/2 [min] (Right), external validation, sheet Human, right compound
Procedure: Our assay (384-well format) consisted of two parts; a robotic system for incubation and sample clean up and an integrated LC/MS method to calculate the percent remaining of parent compound. Briefly, each reaction mixture (110 μL) consisted of a test compound (1 μM) and either human or mouse cytosol fractions (2 mg/mL) in phosphate buffer (100 mM) at pH 7.4. Samples were incubated in 384-well plates at 37 °C for 0, 5, 10, 15, 30 and 60 min. Sample analysis and t1/2 calculations were performed using a previously described method [15]. […] A set of control compounds for low and high cytosolic stability were routinely run in each plate.

SMILES	half-life at 1 μM
CN1CCN(C(=O)Cc2cccn2-c2ccc(F)cc2)CC1 [CN1CCN(C(=O)Cc2cccn2-c2ccc(F)cc2)CC1]	> 2 h

Same assay, conditions: both, human, liver cytosol fractions, pH 7.4, t1/2 [min] (Left), external validation, sheet Human, left compound

SMILES	half-life at 1 μM
O=C(c1ccsc1)N1CCC(Oc2cccc(F)c2)C1 (centres unmarked) [O=C(c1ccsc1)N1CCC(Oc2cccc(F)c2)C1]	1.38 h
CC(=O)N1CCC(Cc2ccc(C(=O)NC3CC3)cc2)CC1 [CC(=O)N1CCC(Cc2ccc(C(=O)NC3CC3)cc2)CC1]	1.33 h
N#Cc1ccc(CN2CC(Oc3ccc(F)cc3F)C2)cc1 [N#Cc1ccc(CN2CC(Oc3ccc(F)cc3F)C2)cc1]	1.05 h
CC(C)(C)c1coc([C@@H]2COCCN2Cc2cccc(C#N)c2)n1	0.943 h
CN1c2cc(C(=O)Nc3ccc(C#N)cc3)ccc2C(=O)N2CCCCC21 (centres unmarked)	> 2 h
N#Cc1cccc(CN2CC(COc3ccccc3)C3(C2)CN(c2ccccc2)C3)c1 (centres unmarked)	0.693 h

Same assay, conditions: both, human, liver cytosol fractions, pH 7.4, t1/2 [min] (Right), external validation, sheet Human, right compound

SMILES	half-life at 1 μM
COc1cccc(-c2c(C(=O)Nc3ccc(C)cc3)nc3sccn23)c1	1.55 h
COc1ccc(C(=O)N2C[C@@H](CO)[C@H](N(C)C)C2)cc1	> 2 h
O=C(c1ccoc1)N1CCC(Oc2ccccc2)C1 (centres unmarked) [O=C(c1ccoc1)N1CCC(Oc2ccccc2)C1]	> 2 h
COc1ccc(CN2CC[C@H](c3nnc(C)o3)C2)cc1 [COc1ccc(CN2CC[C@H](c3nnc(C)o3)C2)cc1]	> 2 h
CN(CC1CCOC1)C(=O)Nc1ccccc1 (centres unmarked) [CN(CC1CCOC1)C(=O)Nc1ccccc1]	> 2 h
CC1(c2ccccc2)N(Cc2ccccc2)C(=O)OC12CCN(Cc1ccc(C(=O)O)cc1)CC2 (centres unmarked)	> 2 h
COc1cccc(-c2c(C(=O)N3CCCCC3)nc3sccn23)c1 [COc1cccc(-c2c(C(=O)N3CCCCC3)nc3sccn23)c1]	1.9 h
Cc1nn2c(c1-c1ccccc1Oc1ccccc1)N(Cc1ccc(C(=O)O)cc1)CCC2	> 2 h
COc1cccc(-c2c(C(=O)N3CCOCC3)nc3sccn23)c1 [COc1cccc(-c2c(C(=O)N3CCOCC3)nc3sccn23)c1]	> 2 h
COc1cccc(-c2cn3c(n2)N(C(=O)c2ccco2)CCC3)c1	0.993 h
COCCOC1CCN(C(=O)Nc2ccccc2)CC1 [COCCOC1CCN(C(=O)Nc2ccccc2)CC1]	> 2 h
COc1cccc(-c2cn3c(n2)N(C(=O)c2ccoc2)CCC3)c1	1.86 h
COc1cccc(CN2CCOC[C@H](O)C2)c1 [COc1cccc(CN2CCOC[C@H](O)C2)c1]	0.47 h
COc1ccc(CN2CCC3(COc4ccccc4C(=O)N3)C2)cc1 (centres unmarked) [COc1ccc(CN2CCC3(COc4ccccc4C(=O)N3)C2)cc1]	0.578 h
COc1ccc(CN2CC[C@@](C)(O)[C@H](N3CCCC3)C2)cc1	> 2 h
Cc1cc2cc(-c3c(C)noc3C)nc(Nc3ccccc3)c2o1 [Cc1cc2cc(-c3c(C)noc3C)nc(Nc3ccccc3)c2o1]	0.593 h
COc1ccccc1CN1CCC2(CC1)CC(O)CCO2 (centres unmarked) [COc1ccccc1CN1CCC2(CC1)CC(O)CCO2]	> 2 h
O=C(N1CCN(S(=O)(=O)c2ccccc2)CC1)N1CC2CC(C1)[C@H]1CCCC(=O)N1C2 (some centres unmarked)	> 2 h
COc1ccc(CN2CCC(N3CCOC3=O)CC2)cc1 [COc1ccc(CN2CCC(N3CCOC3=O)CC2)cc1]	> 2 h
COc1ccc(CN2CCC(N3Cc4cccn4C3=O)CC2)cc1 [COc1ccc(CN2CCC(N3Cc4cccn4C3=O)CC2)cc1]	> 2 h

SMILES	half-life at 1 μM
COc1ccc(C(=O)N2CCC3(CCC3OC)CC2)cc1 (centres unmarked) [COc1ccc(C(=O)N2CCC3(CCC3OC)CC2)cc1]	1.17 h
COc1ccc(CN2CC(Oc3ccc(OC)cc3)C2)cc1 [COc1ccc(CN2CC(Oc3ccc(OC)cc3)C2)cc1]	> 2 h
COc1ccc(CN2CC(Oc3ccc(F)cc3C)C2)cc1 [COc1ccc(CN2CC(Oc3ccc(F)cc3C)C2)cc1]	0.35 h
CN1CCC(OC2CCN(C(=O)c3ccccc3)CC2)CC1 [CN1CCC(OC2CCN(C(=O)c3ccccc3)CC2)CC1]	> 2 h
CNC(=O)[C@@H]1CN(C(=O)c2cccc(OC)c2)C[C@H]1COC	> 2 h
O=C(O)c1ccc(CN2CCOC[C@H]2c2nc(-c3ccc(F)cc3)c[nH]2)cc1	> 2 h
COc1ccc(CN2CC(N3CCc4ccccc43)C2)cc1 [COc1ccc(CN2CC(N3CCc4ccccc43)C2)cc1]	1.37 h
O=C(c1cccs1)N1CCC(Oc2ccccc2)C1 (centres unmarked) [O=C(c1cccs1)N1CCC(Oc2ccccc2)C1]	0.638 h
CN(Cc1ccccc1)C1CCOc2ccccc21 (centres unmarked) [CN(Cc1ccccc1)C1CCOc2ccccc21]	0.127 h
COc1ccc(CN2CCC3(C2)NC(=O)c2ccccc2O3)cc1 (centres unmarked) [COc1ccc(CN2CCC3(C2)NC(=O)c2ccccc2O3)cc1]	> 2 h
COc1ccc(CN2CC(Oc3ccc(F)c(C)c3)C2)cc1 [COc1ccc(CN2CC(Oc3ccc(F)c(C)c3)C2)cc1]	0.36 h
COc1ccc(CN2CCC(N3CCNC3=O)CC2)cc1 [COc1ccc(CN2CCC(N3CCNC3=O)CC2)cc1]	> 2 h
COc1cccc(CN2CC[C@H](c3nc4ccccc4[nH]3)C2)c1	> 2 h
COc1cccc(-c2cn3c(n2)N(C(=O)c2cccs2)CCC3)c1	> 2 h
COc1cccc(CN2CCC3(CC2)OCCN(C)C3=O)c1 [COc1cccc(CN2CCC3(CC2)OCCN(C)C3=O)c1]	> 2 h
COc1cccc(-c2c(C(=O)NC3CC3)nc3sccn23)c1 [COc1cccc(-c2c(C(=O)NC3CC3)nc3sccn23)c1]	> 2 h
Cc1noc(-c2cn(C3CCN(C(=O)c4ccccc4)C3)nn2)n1 (centres unmarked)	> 2 h
CCN1CCN(C(=O)c2nc3sccn3c2-c2cccc(OC)c2)CC1	> 2 h
CCOc1cc(=O)n2c(c1C(=O)Nc1ccc(S(N)(=O)=O)cc1)CCCC2	> 2 h
COc1cccc(CN2CC[C@H](c3nnc(-c4ccco4)o3)C2)c1	1.97 h

Same assay, conditions: both, human, liver cytosol fractions, pH 7.4, t1/2 [min] (left), in-house library pair, human transforms, left compound

SMILES	half-life at 1 μM
O=C(c1ccsc1)N1CCC(Oc2cccc(F)c2)C1 (centres unmarked) [O=C(c1ccsc1)N1CCC(Oc2cccc(F)c2)C1]	1.38 h
CC(=O)N1CCC(Cc2ccc(C(=O)NC3CC3)cc2)CC1 [CC(=O)N1CCC(Cc2ccc(C(=O)NC3CC3)cc2)CC1]	1.33 h
N#Cc1ccc(CN2CC(Oc3ccc(F)cc3F)C2)cc1 [N#Cc1ccc(CN2CC(Oc3ccc(F)cc3F)C2)cc1]	1.05 h
CC(C)(C)c1coc([C@@H]2COCCN2Cc2cccc(C#N)c2)n1	0.943 h
N#Cc1cccc(CN2CC(COc3ccccc3)C3(C2)CN(c2ccccc2)C3)c1 (centres unmarked)	0.693 h

Same assay, conditions: external validation, sheet Human, left compound

SMILES	t1/2 [min] (Left)
Cn1cnc2ccc(Nc3cccc(F)c3)nc2c1=O [Cn1cnc2ccc(Nc3cccc(F)c3)nc2c1=O]	115.2 min
N#Cc1cccc(-c2c(C(=O)N3CCCCC3)nc3sccn23)c1	103.4 min
Cc1cc(OC2CN(Cc3ccc(C#N)cc3)C2)ccc1F [Cc1cc(OC2CN(Cc3ccc(C#N)cc3)C2)ccc1F]	43.8 min
N#Cc1cccc(-c2c(C(=O)NC3CC3)nc3sccn23)c1 [N#Cc1cccc(-c2c(C(=O)NC3CC3)nc3sccn23)c1]	95.2 min
CCOc1cc(=O)n2c(c1C(=O)Nc1ccc(C#N)cc1)CCCC2	101.4 min
Cc1cc(F)ccc1OC1CN(Cc2ccc(C#N)cc2)C1 [Cc1cc(F)ccc1OC1CN(Cc2ccc(C#N)cc2)C1]	35.4 min
COc1ccc(-c2n[nH]c3ncc(-c4cccc(F)c4)nc23)c(C)c1	75.8 min
O=c1c2nc(Nc3cccc(F)c3)ccc2ncn1-c1ccccc1 [O=c1c2nc(Nc3cccc(F)c3)ccc2ncn1-c1ccccc1]	93.9 min
Fc1cccc(-c2cnc(Nc3cncnc3)c3c2CCO3)c1 [Fc1cccc(-c2cnc(Nc3cncnc3)c3c2CCO3)c1]	9.6 min
N#Cc1ccc(CN2CC(Oc3ccc(F)c(F)c3)C2)cc1 [N#Cc1ccc(CN2CC(Oc3ccc(F)c(F)c3)C2)cc1]	71.4 min
Cc1noc(C)c1-c1cc(-c2cccc(F)c2)cn2cncc12 [Cc1noc(C)c1-c1cc(-c2cccc(F)c2)cn2cncc12]	90 min
Cc1ccc(-c2noc([C@@H]3Cc4[nH]cnc4CN3Cc3cccc(C#N)c3)n2)cc1	63.4 min
CN(Cc1cccc(F)c1)C1CCOc2ccccc21 (centres unmarked) [CN(Cc1cccc(F)c1)C1CCOc2ccccc21]	8.6 min
N#Cc1cccc(CN2C[C@@H](CO)[C@H](c3ccccn3)C2)c1	57.4 min
O=C(c1cccs1)N1CCC(Oc2cccc(F)c2)C1 (centres unmarked) [O=C(c1cccs1)N1CCC(Oc2cccc(F)c2)C1]	17.4 min
Cc1cc2cc(-c3c(C)noc3C)nc(Nc3cccc(F)c3)c2o1	8.2 min

SMILES	t1/2 [min] (Left)
Cc1ccc(NC(=O)c2nc3sccn3c2-c2cccc(C#N)c2)cc1	17.4 min
O=C(NCCc1c[nH]cn1)c1ccc(-c2ncc3cnc(-c4cccc(F)c4)cn23)cc1	14.9 min
N#Cc1ccc(CN2CCC(N3CCNC3=O)CC2)cc1 [N#Cc1ccc(CN2CCC(N3CCNC3=O)CC2)cc1]	93.2 min
Cn1ccc(NC(=O)c2ccc(-c3ncc4cnc(-c5cccc(F)c5)cn34)cc2)n1	33.2 min
COc1cncc(Nc2ncc(-c3cccc(F)c3)c3c2OCC3)c1 [COc1cncc(Nc2ncc(-c3cccc(F)c3)c3c2OCC3)c1]	80.3 min
N#Cc1ccccc1CN1CCC2(CC1)CC(O)CCO2 (centres unmarked) [N#Cc1ccccc1CN1CCC2(CC1)CC(O)CCO2]	80.3 min
O=C(c1ccoc1)N1CCC(Oc2cccc(F)c2)C1 (centres unmarked) [O=C(c1ccoc1)N1CCC(Oc2cccc(F)c2)C1]	70.5 min
N#Cc1cccc(CN2CCOC[C@H]2c2nc(-c3ccc(F)cc3)c[nH]2)c1	94.7 min
N#Cc1cccc(-c2cn3c(n2)N(C(=O)c2ccco2)CCC3)c1	36.7 min
Fc1cccc(Nc2ncc(-c3cccnc3)c3c2OCC3)c1 [Fc1cccc(Nc2ncc(-c3cccnc3)c3c2OCC3)c1]	76.6 min
N#Cc1cccc(CN2CCOC[C@H](O)C2)c1 [N#Cc1cccc(CN2CCOC[C@H](O)C2)c1]	51.1 min
Fc1cccc(-c2noc(-c3nc(-c4ccncc4)no3)n2)c1 [Fc1cccc(-c2noc(-c3nc(-c4ccncc4)no3)n2)c1]	26.4 min
O=C(Nc1cnc(-c2ccccc2)nc1)c1cccc(F)c1 [O=C(Nc1cnc(-c2ccccc2)nc1)c1cccc(F)c1]	52 min
N#Cc1ccc(CN2CCC3(COc4ccccc4C(=O)N3)C2)cc1 (centres unmarked)	38.4 min
COC1CCC12CCN(C(=O)c1ccc(C#N)cc1)CC2 (centres unmarked) [COC1CCC12CCN(C(=O)c1ccc(C#N)cc1)CC2]	79.2 min
